From ChEMBL document CHEMBL1140899, “Computational studies of epidermal growth factor receptor: docking reliability, three-dimensional quantitative structure-activity relationship analysis, and virtual screening studies” (J Med Chem, 2009)
Activity calls are given as the source filed them. The calls are words filed in the database; no cut-off is given here.

molecular target: T1, Epidermal growth factor receptor (Homo sapiens, UniProt P00533); experiment: not given; conditions: at 100 µM
T1 sequence (P00533 whole entry): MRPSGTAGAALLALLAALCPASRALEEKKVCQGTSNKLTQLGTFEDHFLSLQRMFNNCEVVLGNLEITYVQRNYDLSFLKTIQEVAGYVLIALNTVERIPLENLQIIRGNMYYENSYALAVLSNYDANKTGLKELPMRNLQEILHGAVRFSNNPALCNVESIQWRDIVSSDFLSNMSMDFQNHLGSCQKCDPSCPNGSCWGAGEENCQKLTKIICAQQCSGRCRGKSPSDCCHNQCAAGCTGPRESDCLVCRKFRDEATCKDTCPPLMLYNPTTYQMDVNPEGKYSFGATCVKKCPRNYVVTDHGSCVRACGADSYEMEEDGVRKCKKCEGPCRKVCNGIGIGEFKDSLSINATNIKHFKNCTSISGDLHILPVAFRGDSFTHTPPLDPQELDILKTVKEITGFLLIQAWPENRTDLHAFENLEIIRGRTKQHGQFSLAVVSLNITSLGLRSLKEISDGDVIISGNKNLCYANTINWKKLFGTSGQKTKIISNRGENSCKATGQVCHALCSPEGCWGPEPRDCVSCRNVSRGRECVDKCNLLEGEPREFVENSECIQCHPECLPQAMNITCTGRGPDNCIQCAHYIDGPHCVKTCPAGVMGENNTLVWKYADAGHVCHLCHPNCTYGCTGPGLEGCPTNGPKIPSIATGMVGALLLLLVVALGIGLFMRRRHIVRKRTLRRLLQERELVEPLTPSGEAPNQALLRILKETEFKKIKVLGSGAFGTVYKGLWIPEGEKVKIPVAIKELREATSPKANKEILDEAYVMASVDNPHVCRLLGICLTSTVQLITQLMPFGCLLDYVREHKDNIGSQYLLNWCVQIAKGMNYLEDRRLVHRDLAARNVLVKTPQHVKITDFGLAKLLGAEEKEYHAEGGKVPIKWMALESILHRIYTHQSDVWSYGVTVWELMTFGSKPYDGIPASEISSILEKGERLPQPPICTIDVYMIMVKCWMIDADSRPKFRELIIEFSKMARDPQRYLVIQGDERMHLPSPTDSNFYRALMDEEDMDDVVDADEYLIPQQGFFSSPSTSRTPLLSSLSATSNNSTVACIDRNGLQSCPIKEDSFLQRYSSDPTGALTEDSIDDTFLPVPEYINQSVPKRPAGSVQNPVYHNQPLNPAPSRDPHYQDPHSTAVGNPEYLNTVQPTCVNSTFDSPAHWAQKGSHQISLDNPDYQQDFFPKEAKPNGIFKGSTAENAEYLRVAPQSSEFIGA

Row | Compound | inhibition
1 | CC1=NNC2OC(N)=C(C#N)C(c3ccc4c(c3)OCO4)C12 (stereo unspecified) | 44%
2 | CN1CCN(c2ccccc2/C=C2/C(=O)Nc3ccccc32)CC1 | 55%
3 | COc1cc2ncnc(Nc3cccc(C)c3)c2cc1OC | 100%
4 | FC(F)(F)c1ccc(-n2cnnc2SCc2nc(COc3c(Cl)cccc3Cl)no2)cc1 | 77%
5 | O=c1[nH]nc(SCCS(=O)(=O)c2cccc(C(F)(F)F)c2)n1-c1ccc(OCc2ccccc2)cc1 | 53%
6 | O=c1[nH]nc2n1-c1ccccc1SC2 | 48%
7 | CCOC(=O)c1ccc(N2CCOCC2)c(NS(=O)(=O)c2cc(Br)c(Cl)s2)c1 | 80%

molecular target: T1, Epidermal growth factor receptor; experiment: Inhibition of human recombinant EGFR at 100 uM; conditions: not given

Row | Compound | inhibition
8 | COc1ccc([N+](=O)[O-])c2ncnc(O)c12 | 0%
9 | O=[N+]([O-])c1ccc(N2CCCC2)c2c(O)ncnc12 | 0%
10 | Nc1ccc(Nc2ccc([N+](=O)[O-])c3ncnc(O)c23)cc1 | 0%
11 | Cc1cccc(Nc2ccc([N+](=O)[O-])c3ncnc(O)c23)c1 | 0%

molecular target: T1, Epidermal growth factor receptor; experiment: not given; conditions: not given

Row | Compound | IC50
12 | C=CC(=O)Nc1ccc2ncnc(Cc3cccc(Br)c3)c2c1 | 0.708 nM
13 | C=CC(=O)Nc1nc2c(Cc3ccc(F)c(Cl)c3)ncnc2cc1OCCCN1CCC(C)CC1 | 6.61 nM
14 | O=C(O)CCNc1cc2ncnc(Nc3cccc(Br)c3)c2cn1 | 0.603 nM
15 | O=C(Nc1cccc([N+](=O)[O-])c1)Nc1ncnc2nn3ccccc3c12 | 10000 nM
16 | C=C(C)C(=O)Cc1cc2c(Nc3cccc(Br)c3)ncnc2cn1 | 1.58 nM
17 | COc1cc2ncnc(Nc3ccc(F)c(Cl)c3)c2cc1CN(C)[C@@H](C)C(N)=O | 8 nM
18 | CCOC(=O)/C=C/C(=O)Cc1cc2c(Nc3cccc(Br)c3)ncnc2cn1 | 1.51 nM
19 | COc1cc2ncnc(Nc3cccc(C)c3)c2cc1OC | 4.6 nM
20 | C=CC(=O)C(C)c1cc2c(Nc3cccc(Br)c3)ncnc2cn1 (stereo unspecified) | 0.17 nM
21 | C=CC(=O)Nc1cc2c(Cc3cccc(Br)c3)ncnc2cc1OCCCn1ccnc1 | 3.02 nM
22 | CN(C)CCCNC(=O)/C=C/C(=O)Cc1cc2c(Nc3cccc(Br)c3)ncnc2cn1 | 1.1 nM
23 | C=CC(=O)Nc1ccc2ncnc(Cc3ccc(F)c(Cl)c3)c2n1 | 0.759 nM
24 | C=CC(=O)NC1=CC=C2N=CN=C(Nc3ccc(Oc4ccccc4)cc3)C21 (stereo unspecified) | 5.75 nM
25 | O=C(Nc1cccc(C(F)(F)F)c1)Nc1ncnc2nn3ccccc3c12 | 10000 nM
26 | FC(F)(F)c1ccc(-n2cnnc2SCc2nc(COc3c(Cl)cccc3Cl)no2)cc1 | 6300 nM
27 | Brc1cccc(Nc2ncnc3cc4c(cc23)CN4)c1 | 0.437 nM
28 | COc1cc2ncnc(Nc3ccc(F)c(Cl)c3)c2cc1CN1CC[C@@H](C(N)=O)C1 | 6 nM
29 | C=CC(=O)Nc1cc2c(Cc3ccc(F)c(Cl)c3)ncnc2cc1OCCCN1CCOCC1 | 1.51 nM
30 | CN(N)C/C=C/C(=O)Nc1cc2c(Nc3cccc(Br)c3)ccnc2cn1 | 8.6 nM
31 | C=CC(=O)Nc1cc2c(Cc3cccc(Br)c3)ncnc2cc1OCCCCN(C)C | 3.89 nM
32 | C=CC(=O)NC1=CC=C2N=CN=C(Nc3cccc(C)c3)C21 (stereo unspecified) | 0.417 nM
33 | C=CC(=O)Nc1nc2c(Cc3ccc(F)c(Cl)c3)ncnc2cc1CCCCN1CCOCC1 | 2.69 nM
34 | C=CC(=O)Nc1nc2c(Cc3ccc(F)c(Cl)c3)ncnc2cc1/C=C/CCN1CCOCC1 | 0.158 nM

Row | Compound | IC50
35 | C=CC(=O)Nc1ccc2ncnc(Cc3ccc(F)c(Cl)c3)c2c1 | 0.759 nM
36 | COc1cc2nccc(Nc3ccc(F)c(Cl)c3)c2cc1NC(=O)/C=C/CN1CCOCC1 | 13600 nM
37 | C=CC(=O)NC1=NC=C2N=CN=C(Nc3cccc(C)c3)C21 (stereo unspecified) | 0.479 nM
38 | O=C(/C=C/CC(=O)Nc1ccc2ncnc(Nc3cccc(Br)c3)c2c1)Nc1ccc2c(Nc3cccc(Br)c3)ncnc2c1 | 0.447 nM
39 | C=CC(=O)Nc1ccc2ncnc(Cc3cccc(C)c3)c2c1 | 0.417 nM
40 | O=C(Nc1ccc(C(F)(F)F)cc1)Nc1ncnc2nn3ccccc3c12 | 10000 nM
41 | C=CC(=O)NC1=CC=C2N=CN=C(Nc3cccc(C(F)(F)F)c3)C21 (stereo unspecified) | 0.912 nM
42 | CC(=O)/C=C/C(=O)Cc1ccc2ncnc(Nc3cccc(Br)c3)c2c1 | 1.2 nM
43 | C/C=C/C(=O)Cc1cc2c(Nc3cccc(Br)c3)ncnc2cn1 | 0.501 nM
44 | C=CC(=O)N(C)c1nc2c(Cc3ccc(F)c(Cl)c3)ncnc2cc1OCCCN1CCOCC1 | 20 nM
45 | O=C(Nc1ccc(F)cc1)Nc1ncnc2nn3ccccc3c12 | 10000 nM
46 | COc1cc2ncnc(Nc3ccc(F)c(Cl)c3)c2cc1CNC(=O)[C@H]1CCCCN1C | 8 nM
47 | C=CC(=O)Nc1cc2c(Cc3cccc(Br)c3)ncnc2cc1OCCCN1CCC(C)CC1 | 1.7 nM
48 | C=CC(=O)Nc1nc2c(Cc3ccc(F)c(Cl)c3)ncnc2cc1OCCOC | 0.977 nM
49 | C=CC(=O)Nc1nc2c(Cc3ccc(F)c(Cl)c3)ncnc2cc1OC | 0.955 nM
50 | C=CC(=O)NC1=NC=C2N=CN=C(Nc3ccc(F)c(Br)c3)C21 (stereo unspecified) | 0.724 nM
51 | C=CC(=O)Nc1cc2ncnc(Nc3ccc(F)c(Br)c3)c2[nH]1 | 1.2 nM
52 | CN(C)c1cc2ncnc(Nc3cccc(Br)c3)c2cn1 | 0.0891 nM
53 | C=CC(=O)NC1=CC=C2N=CN=C(Nc3ccc(OCc4ccccc4)cc3)C21 (stereo unspecified) | 3.63 nM
54 | O=C(CCn1ncc2cc3c(Nc4cccc(Br)c4)ncnc3cc21)N1CCOCC1 | 3.72 nM
55 | O=C(/C=C/C(=O)NCCCn1ccnc1)Cc1cc2c(Nc3cccc(Br)c3)ncnc2cn1 | 0.562 nM
56 | C=CC(=O)Nc1ccc2ncnc(Cc3ccc(CN(C)C)c(Br)c3)c2c1 | 44.7 nM
57 | C=CC(=O)Nc1ccc2c(Nc3cccc(Br)c3)ncnc2c1 | 0.251 nM

Row | Compound | IC50
58 | C/C=C/C(=O)Nc1cc2c(Nc3ccc(F)c(Cl)c3)ccnc2cc1CC | 7500 nM
59 | C=CC(=O)C(CCCN1CCOCC1)c1ccc2ncnc(Nc3cccc(Br)c3)c2c1 (stereo unspecified) | 3.31 nM
60 | C=CC(=O)Nc1cc2c(Cc3ccc(F)c(Cl)c3)ncnc2cc1OCCOCCCCO | 1.7 nM
61 | CN1Cc2cc3c(Nc4cccc(Br)c4)ncnc3cc21 | 0.794 nM
62 | CC(C(=O)/C=C/C(=O)NCCCN(C)C)c1cc2c(Nc3cccc(Br)c3)ncnc2cn1 (stereo unspecified) | 1.45 nM
63 | C=CC(=O)Nc1cc2ncnc(Nc3cccc(Cl)c3)c2cn1 | 0.537 nM
64 | CCN(CC)CCCNC(=O)/C=C/C(=O)Cc1cc2c(Nc3cccc(Br)c3)ncnc2cn1 | 0.724 nM
65 | OCC(O)CN1Cc2cc3c(Nc4cccc(Br)c4)ncnc3cc21 (stereo unspecified) | 1.58 nM
66 | O=C(O)CN1Cc2cc3c(Nc4cccc(Br)c4)ncnc3cc21 | 5.13 nM
67 | O=C(CCCN1Cc2cc3c(Nc4cccc(Br)c4)ncnc3cc21)N1CCOCC1 | 8.71 nM
68 | COc1cc2ncnc(Nc3ccc(F)c(Cl)c3)c2cc1CN(C(C)C)[C@@H](C)C(N)=O | < 1 nM
69 | N#Cc1cccc(NC(=O)Nc2ncnc3nn4ccccc4c23)c1 | 10000 nM
70 | C/C=C/C(=O)Nc1ccc2c(Nc3cccc(Br)c3)ncnc2c1 | 0.676 nM
71 | C/C=C/C(=O)Cc1ccc2ncnc(Nc3cccc(Br)c3)c2c1 | 0.55 nM
72 | CCOC(=O)c1ccc(N2CCOCC2)c(NS(=O)(=O)c2cc(Br)c(Cl)s2)c1 | 11100 nM
73 | C=C=CC(=O)Cc1ccc2ncnc(Nc3cccc(Br)c3)c2c1 | 1.58 nM
74 | O=C(/C=C\Cl)Cc1cc2c(Nc3cccc(Br)c3)ncnc2cn1 | 0.692 nM
75 | C=C(C)C(=O)Cc1ccc2ncnc(Nc3cccc(Br)c3)c2c1 | 1.2 nM
76 | O=C(O)/C=C/C(=O)Cc1ccc2ncnc(Nc3cccc(Br)c3)c2c1 | 0.372 nM
77 | C=CC(=O)Nc1cc2ncnc(Nc3cccc(Br)c3)c2[nH]1 | 1.1 nM
78 | COc1cc2ncnc(Nc3ccc(F)c(Cl)c3)c2cc1CN(C)[C@H](C)C(N)=O | 9 nM
79 | C=CC(=O)Nc1cc2c(Cc3cccc(C)c3)ncnc2cc1OCCCN1CCOCC1 | 1.51 nM
80 | CN(C)CCN1Cc2cc3c(Nc4cccc(Br)c4)ncnc3cc21 | 40.7 nM

Row | Compound | IC50
81 | COc1cc2nccc(Nc3ccc(F)c(Cl)c3)c2cc1NC(=O)/C=C/C(C)N(C)C (stereo unspecified) | 5220 nM
82 | Nc1ncnc2nn3ccccc3c12 | 10000 nM
83 | C=CC(=O)Cc1cc2c(Nc3cccc(Br)c3)ncnc2cn1 | 0.912 nM
84 | C=CC(=O)Nc1cc2c(Cc3ccc(F)c(Br)c3)ncnc2cc1OCCCN1CCOCC1 | 1.82 nM
85 | C=CC(=O)NC1=CC=C2N=CN=C(Nc3cccc(Cl)c3)C21 (stereo unspecified) | 1.58 nM
86 | O=S(=O)(CO)Nc1cc2c(Nc3cccc(Br)c3)ncnc2cn1 | 93.3 nM
87 | C=CC(=O)Nc1cc2c(Cc3cccc(Br)c3)ncnc2cc1SCCCN(CC)CC | 0.776 nM
88 | COC[C@H]1Oc2cc3ncnc(Nc4cccc(Cl)c4)c3cc2O[C@@H]1COC | 10.1 nM
89 | O=C(Cc1c[nH]c2cc3ncnc(Nc4cccc(Br)c4)c3cc12)N1CCOCC1 | 4.79 nM
90 | CCOc1cc2nccc(Nc3cccc(Br)c3)c2cc1NC(=O)/C=C/CN1CCOCC1 | 10300 nM
91 | CS(=O)(=O)CCN(CCCCOc1ccc2ncnc(Nc3ccc(OCc4ccccc4)cc3)c2c1)C(=O)C(F)(F)F | 234 nM
92 | COc1cc(NC(=O)/C=C/CN2CCOCC2)cc2c(Nc3cccc(Br)c3)ccnc12 | 5390 nM
93 | O=C(Nc1ccc(Br)cc1)Nc1ncnc2nn3ccccc3c12 | 10000 nM
94 | CCOC(=O)/C=C/C(=O)Cc1ccc2ncnc(Nc3cccc(Br)c3)c2c1 | 2.69 nM
95 | C=CC(=O)C(CCCN1CCOCC1)c1cc2c(Nc3cccc(Br)c3)ncnc2cn1 (stereo unspecified) | 2.69 nM
96 | C=CC(=O)Nc1cc2c(Cc3cccc(C)c3)ncnc2cc1OCCCN1CCC(C)CC1 | 2 nM
97 | C=CC(=O)Nc1ccc2ncnc(Cc3ccc(OCCN(C)C)c(Br)c3)c2c1 | 26.9 nM
98 | C=CC(=O)NC1=NC=C2N=CN=C(Nc3ccc(F)c(Cl)c3)C21 (stereo unspecified) | 0.776 nM
99 | COc1cc2nccc(Nc3ccc(F)c(Cl)c3)c2cc1NC(=O)/C=C/C(C)N1CCOCC1 (stereo unspecified) | 10600 nM
100 | C=CC(=O)Nc1ccc2ncnc(Cc3ccc(F)c(Br)c3)c2c1 | 0.692 nM

molecular target: T1, Epidermal growth factor receptor; experiment: Inhibition of human recombinant EGFR up to 100 uM; conditions: not given

Row | Compound | Activity
101 | FC(F)(F)Oc1ccc(Nc2ccnc3cc(Cl)ccc23)cc1 | inactive
